The values that follow come from ChEMBL document CHEMBL1157923, “Probing the cannabinoid CB1/CB2 receptor subtype selectivity limits of 1,2-diarylimidazole-4-carboxamides by fine-tuning their 5-substitution pattern” (Bioorg Med Chem Lett, 2010).

By logP is commonly meant a log measure of how a compound divides between an organic and an aqueous phase. Low readings indicate a more hydrophilic compound, high ones a more lipophilic compound. In general, Ki refers to the equilibrium dissociation constant of an inhibitor or competing ligand from its target. A lower Ki goes with a stronger hold on the target.

Series [1] in a line: Lipophilicity log P of compound at pH 7.4 by RP-HPLC analysis. The series is classed as physicochemical. As to conditions: buffer.
The test system of series [2] is Rattus norvegicus. The series can be described thus: Inhibition of CP-55940-induced hypotension in po dosed anaesthetized rat. The following applies: read-out: ID50 (the source's name). The series is classed as functional.
For series [3], the system named is LLC-PK1. Put plainly: Efflux ratio of permeability in pig LLC-PK1 cells expressing human MDR1 assessed as ratio of bottom to top transport over top to bottom transport. The class given is ADME, cell-based, Sus scrofa.
For series [4], the species on record is Homo sapiens. The series can be described thus: Selectivity ratio Ki for human CB2 receptor to Ki for human CB1 receptor.
For series [5], the target named is Cannabinoid receptor 1 (Homo sapiens, UniProt P21554). The series can be described thus: biochemical. The series is classed as cell-based, CHO.
In series [6] the target is Cannabinoid receptor 2 (Homo sapiens, UniProt P34972). The series can be described thus: Displacement of [3H]CP-55940 from human CB2 receptor expressed in CHO cells. The class given is cell-based. (Loss of bound radioactivity is the signal in a displacement assay; it reports binding, not function.)
The nature of series [7]: Terminal half life in non obese human. As to conditions: in vivo, read-out: beta t1/2 (converted). The class given is ADME, organism-based.

Sequence of Cannabinoid receptor 2 (P34972 whole entry): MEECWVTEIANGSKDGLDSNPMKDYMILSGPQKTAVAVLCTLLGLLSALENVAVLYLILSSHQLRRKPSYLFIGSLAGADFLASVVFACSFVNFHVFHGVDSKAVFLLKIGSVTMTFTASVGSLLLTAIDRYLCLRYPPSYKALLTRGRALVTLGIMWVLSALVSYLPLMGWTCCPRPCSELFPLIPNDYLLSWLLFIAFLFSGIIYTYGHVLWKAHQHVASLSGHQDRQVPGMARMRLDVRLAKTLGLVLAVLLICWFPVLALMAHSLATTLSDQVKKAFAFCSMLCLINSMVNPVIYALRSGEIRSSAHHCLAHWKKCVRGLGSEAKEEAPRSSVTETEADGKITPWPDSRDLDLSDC
Sequence of Cannabinoid receptor 1 (P21554 whole entry): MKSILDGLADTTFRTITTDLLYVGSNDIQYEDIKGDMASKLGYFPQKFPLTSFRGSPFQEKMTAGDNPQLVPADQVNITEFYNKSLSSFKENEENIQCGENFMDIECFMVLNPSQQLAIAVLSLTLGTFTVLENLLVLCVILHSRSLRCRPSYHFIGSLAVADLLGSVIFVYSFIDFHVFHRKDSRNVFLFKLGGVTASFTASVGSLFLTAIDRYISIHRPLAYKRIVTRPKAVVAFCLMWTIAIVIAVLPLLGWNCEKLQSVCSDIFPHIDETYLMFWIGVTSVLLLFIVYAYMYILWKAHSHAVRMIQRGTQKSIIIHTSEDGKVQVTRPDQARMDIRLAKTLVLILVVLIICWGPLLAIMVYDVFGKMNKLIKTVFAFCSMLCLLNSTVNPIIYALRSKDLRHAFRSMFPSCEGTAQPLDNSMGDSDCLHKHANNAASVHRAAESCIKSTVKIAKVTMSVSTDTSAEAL

For the molecule `CSc1c(C(=O)NN2CCCCC2)nc(-c2ccc(Cl)cc2Cl)n1-c1ccc(Cl)cc1`, in series [1], the logP turned out to be 4.8. Also, the ED50 in series [2] was 1.9 mg/kg. Moreover, the Ratio in series [3] was determined as 1.4. Besides, the Ratio IC50 in series [4] came to 88. In addition, the Ki in series [5] was found to be 12.2 nM; in series [6], 1070 nM.
As for `CSc1c(C(=O)NN2CCCCCC2)nn(-c2ccc(Cl)cc2Cl)c1-c1ccc(Cl)cc1`, the Ratio IC50 in series [4] stood at 14. For the same molecule, the results for the Ki in series [5] and in series [6] were 27 nM and 371 nM, respectively.
Consider `CS(=O)(=O)c1c(C(=O)NN2CCCCC2)nc(-c2ccc(Cl)cc2Cl)n1-c1ccc(Cl)cc1`, for which the logP in series [1] was found to be 3.5. In series [2], the ED50 was 29 mg/kg. Also, in series [3], the Ratio amounted to 6. The Ratio IC50 in series [4] was greater than 840. Moreover, the Ki in series [6] is greater than 10000 nM.
As to `Cc1c(C(=O)NN2CCCCC2)nn(-c2ccc(Cl)cc2Cl)c1-c1ccc(Cl)cc1` [RIMONABANT], in series [7], the half-life is 144 h.
Take `CCc1c(C(=O)NN2CCCCC2)nc(-c2ccc(Cl)cc2Cl)n1-c1ccc(Cl)cc1`: the Ratio IC50 in series [4] is 31.
For `CSc1c(C(=O)NN2CCCCC2)nn(-c2ccc(Cl)cc2Cl)c1-c1ccc(Cl)cc1`, the ED50 in series [2] was 1.5 mg/kg. For the same molecule, the inhibition constant Ki is 13 nM in series [5] and 804 nM in series [6].
With `C[S+]([O-])c1c(C(=O)NN2CCCCC2)nc(-c2ccc(Cl)cc2Cl)n1-c1ccc(Cl)cc1` (single isomer, unassigned; (+)) [listing 1 of 2 here], in series [4], the Ratio IC50 is greater than 77.
For the molecule `C[S+]([O-])c1c(C(=O)NN2CCCCC2)nc(-c2ccc(Cl)cc2Cl)n1-c1ccc(Cl)cc1` (stereo in doubt; 12) [listing 1 of 2 here], the logP in series [1] stood at 3.7. Moreover, in series [2], the ED50 was greater than 30 mg/kg. Further, in series [3], the Ratio was determined as 7.7. Besides, the inhibitory constant (Ki) in series [5] was 49 nM; in series [6] (cho), greater than 1000 nM.
Consider `Cc1c(C(=O)NN2CCCCC2)nc(-c2ccc(Cl)cc2Cl)n1-c1ccc(Cl)cc1`, for which the Ratio IC50 in series [4] was 20.
Turning to `CCSc1c(C(=O)NN2CCCCC2)nc(-c2ccc(Cl)cc2Cl)n1-c1ccc(Cl)cc1`, in series [4], the Ratio IC50 was greater than 19. The inhibition constant Ki in series [5] was 51 nM; in series [6] it was greater than 1000 nM.
Turning to `CSc1c(C(=O)NN2CCCCCC2)nc(-c2ccc(Cl)cc2Cl)n1-c1ccc(Cl)cc1`, in series [4], the Ratio IC50 was determined as 27. Also, the inhibitory constant (Ki) in series [5] worked out at 12 nM; in series [6], 325 nM.
With `CSc1c(C(=O)NN2CCCC2)nc(-c2ccc(Cl)cc2Cl)n1-c1ccc(Cl)cc1`, the Ratio IC50 in series [4] was greater than 112. For the same molecule, the affinity in series [5], expressed as Ki, was 8.9 nM.
On to `O=C(NN1CCCCC1)c1nc(-c2ccc(Cl)cc2Cl)n(-c2ccc(Cl)cc2)c1I`, for which the Ratio IC50 in series [4] was 181. Moreover, the Ki in series [5] worked out at 10 nM; in series [6] it was 1810 nM.
Regarding `C[S+]([O-])c1c(C(=O)NN2CCCCC2)nn(-c2ccc(Cl)cc2Cl)c1-c1ccc(Cl)cc1` (stereo not drawn), the logP in series [1] was found to be 3.7. Besides, the ED50 in series [2] was greater than 30 mg/kg. For the same molecule, the Ratio in series [3] is recorded as 8. Also, the Ratio IC50 in series [4] is 20. Besides, the Ki is 20 nM in series [5] and 398 nM in series [6].
As to `N#Cc1c(C(=O)NN2CCCCC2)nc(-c2ccc(Cl)cc2Cl)n1-c1ccc(Cl)cc1`, in series [4], the Ratio IC50 was 53.
With `C[S+]([O-])c1c(C(=O)NN2CCCCC2)nc(-c2ccc(Cl)cc2Cl)n1-c1ccc(Cl)cc1` (stereo in doubt; 12) [listing 2 of 2 here], the Ratio IC50 in series [4] is greater than 20.
Turning to `C[S+]([O-])c1c(C(=O)NN2CCCCC2)nc(-c2ccc(Cl)cc2Cl)n1-c1ccc(Cl)cc1` (single isomer, unassigned; (-)) [listing 1 of 2 here], the Ratio IC50 in series [4] was greater than 50.
Take `C[S+]([O-])c1c(C(=O)NN2CCCCC2)nc(-c2ccc(Cl)cc2Cl)n1-c1ccc(Cl)cc1` (single isomer, unassigned; (-)) [listing 2 of 2 here]: the values for the Ki in series [5] and in series [6] were 20 nM and greater than 1000 nM, respectively.
`CSc1c(C(=O)NN2CCCC2)nn(-c2ccc(Cl)cc2Cl)c1-c1ccc(Cl)cc1` registered a log partition coefficient (logP) in series [1] of 4.7. The ED50 in series [2] worked out at 1.9 mg/kg. Further, the Ratio IC50 in series [4] turned out to be 211. The results for the Ki in series [5] and in series [6] were 3 nM and 634 nM, respectively.
Turning to `O=C(NN1CCCCC1)c1nc(-c2ccc(Cl)cc2Cl)n(-c2ccc(Cl)cc2)c1CO`, the Ratio IC50 in series [4] stood at 221. Further, the results for the inhibition constant Ki in series [5] and in series [6] were 34 nM and 7500 nM, respectively.
`C[S+]([O-])c1c(C(=O)NN2CCCCC2)nc(-c2ccc(Cl)cc2Cl)n1-c1ccc(Cl)cc1` (single isomer, unassigned; (+)) [listing 2 of 2 here]: the Ki is 12.9 nM in series [5] and greater than 1000 nM in series [6] (cho).
